Data as given in patent US9708247B2, “Modulators of the eIF2alpha pathway” (The Regents of the University of California, priority 2013, dated 2017).
pIC50: −log10 of the molar value.

These molecules were tested on ATF4 luciferase reporter (assay: ATF4 luciferase reporter assay (Cell-luc) in HEK293T cells). Conditions: ATF4 luciferase reporter, HEK293T cells; read-out: IC50 (nM) Cell-luc.
Format: cell-based, human
Source text: FIGS. 1A-1C. […]
To identify inhibitors of PERK signaling, we engineered a reporter that allows monitoring of PERK activation in living cells. To this end, we constructed a retroviral vector containing the open-reading frame of firefly luciferase fused to the 5′UTR of ATF4 mRNA (FIG. 1A), which contains two short open-reading frames (uORFs) that control ATF4 translation in a stress-dependent manner. After infection, we established a HEK293T cell line harboring the stably integrated reporter. […] This format was used to screen 106,281 compounds covering a wide chemical space. We identified 460 hits (0.43%) (FIG. 1C), which were further validated in an 8-point dose-response assay using the same reporter. We further triaged the compounds by discarding inhibitors that also affected the IRE1 branch of the UPR using an XBP1-luciferase splicing reporter. […] We next used an orthogonal secondary screen that employed a different reporter (bi-cistronic ATF4-dGFPIRES-mCherry) stably integrated into a different cell line (U20S cells). The read-out of this latter screen was microscopy-based, which allowed us to simultaneously assess acute toxicity by cell counting, further reducing the number of viable hits to 77. As a tertiary screen, we tested compounds for their ability to inhibit ER stress-elicited induction of endogenous ATF4 by Western blot analysis. Twenty-eight compounds passed this test and were analyzed further.
ATF4 reporters were constructed by fusing the human full-length ATF4 5′-UTR (NCBI Accession BC022088.2) in front of the firefly luciferase (FLuc) or a destabilized eGFP (dEGFP) coding sequences lacking the initiator methionine.
The ATF4-FLuc reporter was generated by cloning a PCR-product containing the ATF4 full-length 5′-UTR (from +1 position a the transcription start site down to one nucleotide after the terminator codon of the second uORF) flanked by KpnI/XhoI and BglII sites at the 5′ and 3′ ends, respectively, into the KpnI-BglII sites of pCAX-F-XBP1-Luc. The resulting construct, pCAX-ATF4-FLuc, was then digested with BamHI, blunted with T4 DNA polymerase, and then digested with XhoI. The resulting fragment was then subcloned into the retroviral expression vector pLPCX (Clontech) after digesting it with HindIII, blunting with T4 DNA polymerase and then digesting with XhoI to generate pLPCX-ATF4-FLuc (DAA-312). DAA-312 was used to produce recombinant retroviruses using standard methods and the resulting viral supernatant was used to transduce HEK293T cells, which were then subsequently selected with puromycin to generate a stable cell line employed in the primary screen.
HEK293T cells carrying the ATF4 luciferase reporter were plated on poly-lysine coated 384 well plates (Greiner) at 30,000 cells per well. […] Luminescence was measured using One Glo (Promega) as specified by the manufacturer. […] Thus, these were considered unique to the PERK branch and were cherry-picked for further analysis.

IC50 [nM]	SMILES
2700	C#CCN(C(=O)COc1ccc(Cl)cc1)[C@H]1CC[C@H](NC(=O)COc2ccc(Cl)cc2)CC1 [755854.1]
75	O=C(COc1ccc(Cl)cc1)N[C@H]1CC[C@H](NC(=O)COc2ccc(Cl)cc2[N+](=O)[O-])CC1 [compound 843987]
100	C#CCN(C(=O)COc1ccc(Cl)cc1)[C@H]1CC[C@H](NC(=O)COc2ccc(Cl)cc2)CC1 [755854.3]
> 10000	O=C(COc1ccc([N+](=O)[O-])cc1)N[C@H]1CC[C@H](NC(=O)COc2ccc([N+](=O)[O-])cc2)CC1 [compound 757130]
34	N=C(COc1ccc(Cl)cc1)N[C@H]1CC[C@H](NC(=O)COc2ccc(Cl)cc2)CC1 [757264.2]
232	C#Cc1ccc(OCC(=O)N[C@H]2CC[C@H](NC(=O)COc3ccc(N=[N+]=[N-])cc3)CC2)cc1 [compound 957866]
100	N=C(COc1ccc(Cl)cc1)N[C@H]1CC[C@H](NC(=O)COc2ccc(Cl)cc2)CC1 [757264.1]
11	O=C(COc1ccc(Cl)c([N+](=O)[O-])c1)N[C@H]1CC[C@H](NC(=O)COc2ccc(Cl)c([N+](=O)[O-])c2)CC1 [compound 957889]
3	O=C(COc1ccc(Cl)cc1)N[C@H]1CC[C@H](NC(=O)COc2ccc(Cl)c([N+](=O)[O-])c2)CC1 [compound 874804]
122	N=C(COc1ccc(Cl)c(F)c1)N[C@H]1CC[C@H](NC(=O)COc2ccc(Cl)c(F)c2)CC1 [compound 957916]
64	C#CCN(C(=O)COc1ccc(Cl)cc1)[C@H]1CC[C@H](NC(=O)COc2ccc(Cl)cc2)CC1 [755854.4]

Same assay, conditions: Homo sapiens, HEK-293T, ATF4 luciferase reporter, HEK293T cells; read-out: IC50 (nM) Cell-luc

IC50 [nM]	SMILES
> 10000	CC(=O)c1ccc(OCC(=O)N[C@H]2CC[C@H](NC(=O)COc3ccc(Cl)cc3)CC2)cc1 [compound 843983]
> 10000	O=C(COc1ccc(Cl)cc1)N[C@H]1CC[C@@H](NC(=O)COc2ccc(Cl)cc2Cl)CC1 [compound 754124]
> 10000	O=C(COc1ccc(Cl)cc1)N[C@H]1CC[C@H](NC(=O)COc2ccc(Cl)cc2C(=O)c2ccccc2)CC1 [compound 873973]
> 10000	O=C(COc1ccc(Cl)cc1)N[C@H]1C[C@H](NC(=O)CSc2ccc(Cl)cc2)C1 [compound 811771]
> 10000	C[S+]([O-])c1ccc(OCC(=O)N[C@H]2CC[C@H](NC(=O)COc3ccc(Cl)cc3)CC2)cc1 (stereo partly drawn) [compound 757260]
334	O=C(COc1ccc(Cl)cc1)N[C@H]1CC[C@H](NC(=O)COc2cccc(F)c2F)CC1 [compound 912563]
520	C[C@@H]1NC(=O)N[C@@H]1CCCCCC(=O)NCCOCCOCCOCCn1cc(-c2ccc(OCC(=O)N[C@H]3CC[C@H](NC(=O)COc4ccc(Cl)cc4)CC3)cc2)nn1 [compound 916727]
11	O=C(COc1ccc(Cl)c(C(F)(F)F)c1)N[C@H]1CC[C@H](NC(=O)COc2ccc(Cl)c(C(F)(F)F)c2)CC1 [compound 957887]
> 10000	Cc1ccc(CC(=O)N[C@H]2CC[C@H](NC(=O)COc3ccc(Cl)cc3)CC2)cc1 [compound 751595]
1270	C[C@@H]1NC(=O)N[C@@H]1CCCCCC(=O)NCCOCCOCCOCCn1cc(-c2cc(OCC(=O)N[C@H]3CC[C@H](NC(=O)COc4ccc(Cl)cc4)CC3)ccc2Cl)nn1 [compound 916728]
210	CC(Oc1ccc(Cl)cc1)C(=O)N[C@H]1CC[C@H](NC(=O)COc2ccc(Cl)cc2)CC1 (stereo partly drawn) [compound 874799]
170	O=C(COc1ccc(Cl)cc1)N[C@H]1CC[C@H](NCCOc2ccc(Cl)cc2)CC1 [compound 835195]
> 10000	C[S+]([O-])c1ccc(OCC(=O)N[C@H]2CC[C@H](NC(=O)COc3ccc([S+](C)[O-])cc3)CC2)cc1 (stereo partly drawn) [compound 757096]
263	N#Cc1ccc(OCC(=O)N[C@H]2CC[C@H](NC(=O)COc3ccc(Cl)cc3)CC2)cc1 [compound 757259]
> 10000	O=C(CCc1ccc(Cl)cc1)N[C@H]1CC[C@H](NC(=O)CCc2ccc(Cl)cc2)CC1 [compound 754125]
> 10000	O=C(COc1ccc(Cl)cc1)NCc1cccc(NC(=O)COc2ccc(Cl)cc2)c1 [compound 873882]
3000	C#C[C@]1(NC(=O)COc2ccc(Cl)cc2)CC[C@@H](NC(=O)COc2ccc(Cl)cc2)CC1 [compound 757132]
149	CC(=O)c1cc(OCC(=O)N[C@H]2CC[C@H](NC(=O)COc3ccc(Cl)cc3)CC2)ccc1Cl [compound 912566]

IC50 [nM]	SMILES
900	O=C(COc1ccc(Cl)cc1)N[C@H]1CC[C@H](NC(=O)CSc2ccc(F)cc2)CC1 [compound 811770]
> 10000	O=C(COc1ccc(Cl)cc1)N[C@H]1CC[C@H](NC(=O)C[S+]([O-])c2ccc(Cl)cc2)CC1 (stereo partly drawn) [compound 757262]
> 10000	C#Cc1ccc(OCC(=O)N[C@H]2CC[C@H](NC(=O)COc3ccc(C4(C(F)(F)F)N=N4)cc3)CC2)cc1 [compound 916751]
5.6	O=C(COc1ccc(Cl)cc1)N[C@H]1CC[C@H](NC(=O)COc2ccc(I)cc2)CC1 [compound 914989]
12	C#Cc1cc(OCC(=O)N[C@H]2CC[C@H](NC(=O)COc3ccc(Cl)cc3)CC2)ccc1Cl [compound 914584]
250	COc1ccc(OCC(=O)N[C@H]2CC[C@H](NC(=O)COc3ccc(Cl)cc3)CC2)cc1 [compound 751591]
> 10000	O=C(COc1ccc(Cl)cc1)N[C@H]1CC[C@H](NC(=O)COc2ccc(OCc3ccccc3)cc2)CC1 [compound 751592]
> 10000	COc1ccc(OCC(=O)N[C@H]2CC[C@H](NC(=O)COc3ccc(OC)cc3)CC2)cc1 [compound 754123]
> 10000	C#Cc1ccc(OCC(=O)N[C@H]2CC[C@H](NC(=O)COc3ccc(Cl)c(C4(C(F)(F)F)N=N4)c3)CC2)cc1 [compound 955278]
142	O=C(COc1ccc(Cl)cc1)N[C@H]1C[C@H](NC(=O)COc2ccc(Cl)cc2)C1 [compound 755855]
10	O=C(COc1ccc(Cl)cc1)N[C@H]1CC[C@H](NC(=O)COc2ccc(C(F)(F)F)cc2)CC1 [compound 757258]
> 10000	O=C(COc1ccc(Cl)cc1)N[C@H]1CC[C@H](NC(=O)c2ccc(Cl)cc2)CC1 [compound 751596]
158	C#Cc1ccc(OCC(=O)N[C@H]2CC[C@H](NC(=O)COc3ccc(C#C)cc3)CC2)cc1 [compound 916786]
2600	C[C@@H]1NC(=O)N[C@@H]1CCCCCC(=O)NCCOCCOCCOCCn1cc([C@]2(NC(=O)COc3ccc(Cl)cc3)CC[C@H](NC(=O)COc3ccc(Cl)cc3)CC2)nn1 [compound 873883]
37	C#C[C@]1(NC(=O)COc2ccc(Cl)cc2)CC[C@H](NC(=O)COc2ccc(Cl)cc2)CC1 [compound 757149]
14	C#Cc1ccc(OCC(=O)N[C@H]2CC[C@H](NC(=O)COc3ccc(Cl)cc3)CC2)cc1 [compound 916353]
1000	O=C(COc1ccc(Cl)cc1)N[C@H]1C[C@@H](NC(=O)COc2ccc(Cl)cc2)C1 [compound 755856]

SMILES	IC50 [nM]
C[Si](C)(C)C#Cc1ccc(OCC(=O)N[C@H]2CC[C@H](NC(=O)COc3ccc(Cl)cc3)CC2)cc1 [compound 916348]	160

Same assay, conditions: cultured HEK293T cells; 2 μg/ml tunicamycin, 7 h; synthesized isomers; read-out: IC50, inhibition of the ATF4-luciferase reporter

SMILES	pIC50
O=C(COc1ccc(Cl)cc1)N[C@H]1CC[C@@H](NC(=O)COc2ccc(Cl)cc2)CC1 [cis-ISRIB, 2-(4-chlorophenoxy)-N-[(1s, 4s)-4-[2-(4-chlorophenoxy)acetamido]cyclohexyl]acetamide]	6.22
